Assay [1] relates to αv integrins αvβ1, β3, β5. Put plainly: TGFβ activity assay, htert-SMAD reporter cells co-cultured with htert-USP10 cells, αv integrin blocking. It is filed as cell-based, human. The following applies: 100 nM, compared to control small molecule CWHM96. On the procedure: TGFβ activity was measured using cell lines constitutively expressing pGreenFire Lenti-Reporter (System Biosciences) a reporter for SMAD activation. This reporter was used to generate TGFβ reporter cell lines with htert fibroblasts (htert-SMAD) and 293t cells (293t-SMAD). To assess TGFβ activity with USP10 overexpression, 50K Htert-SMAD cells were co-cultured with 50K cells constitutively overexpressing USP10 (htert-USP10) or control cells (htert cells expressing empty vector, htert-vector cells). After 24 hours, cells were removed with trypsin, pelleted, re-suspended in luciferase reagent, placed in wells in triplicate, and assayed for luciferase expression. To assess TGFβ activity when USP10 was silenced, USP10 and control siRNA were transiently transfected in 293t-SMAD cells and assayed as above. To assess TGFβ activity when av integrins were blocked, USP10 cells were treated with intergrin αv blocking small molecule or matched control small molecule and assayed as above.
It was previously reported that integrin αvβ5 directly activates TGFβ in myofibroblasts. […] First we confirmed that the htert-HCF line had low (undetectable) endogenous TGFβ activity so that the induction of TGFβ activity by USP10 could be quantified (data not shown). […] The next day, cells were lysed and luciferase substrate (Brightglo) was added prior to quantification of luciferase activity in each sample. […]

The next assay concerns USP10 expression. Put plainly: USP10 protein expression in HCFs treated with TGFβ or TGFβ inhibitor. It is filed as cell-based, human. The source says:
Porcine corneas with scleral rims were mounted on an agarose/collagen base without wounding (control corneas) or after wounding through the anterior stroma with a trephine (wounded corneas). A-H immunostaining of paraffin embedded corneal slices comparing control to 2 weeks post-wounding. Compared to control fibrotic markers increased in the anterior stroma after wounding: (A, B) α-SMA 2.9-fold+/−0.8 ***p<0.005, (C) No primary antibody control, (D, E) USP10 2.5-fold+/−0.8 **p<0.01, and F) Pre-incubation with a USP10 blocking peptide reduced immunostaining. Bar=50 um. (G) Western blot of human and porcine primary epithelial cells (Epi) and stromal cells (Fibro).
Since TGFβ plays an important role in all wounding and fibrotic disease, we tested if TGFβ induced the expression of USP10. In the remaining cell culture studies unless otherwise noted, fibroblasts that have been passaged in serum-containing media are detached and plated on type I collagen in supplemented-serum free media (SSFM). In FIG. 4H, primary human corneal fibroblasts (HCFs) were treated with 1 ng/ml TGFβ for 2 days. TGFβ increased USP10 expression by 57% as compared to no treatment.

For `CC(C)(C)c1cc(Br)cc([C@H](CC(=O)O)NC(=O)CNC(=O)c2cc(O)cc(NC3=NCC(O)CN3)c2)c1` (stereo partly drawn) [CWHM12], in assay [1], the “USP10-mediated TGFβ activity, reduction” value is on record as 63%+/−6%. In the case of `NC(=O)c1ccc(-c2nc(-c3ccc4c(c3)OCO4)c(-c3ccccn3)[nH]2)cc1` [SB431542], the “USP10 expression, decrease” value in the assay on USP10 expression (blocking TGFβ-induced SMAD2/3 signaling) stood at 44%.

Regarding “TGFβ: fibrotic growth factor, added at 1 ng/ml to HCFs”, the “USP10 expression, increase” value in the assay on USP10 expression (1 ng/ml for 2 days, compared to no treatment) is listed as 57%.

For the origin of these results see patent US9714424B1, “RNAi inhibition of USP10 to treat ocular disorders” (ICAHN SCHOOL OF MEDICINE AT MOUNT SINAI, priority 2014, dated 2017).
